SMILES strings stand for the structures.

Holding throughout (format): cell-based
The target of one test is T1, rCX3CR1 (Rattus norvegicus, UniProt P35411).
T1 construct: expressed in transfected cells; stably expresses a Ca2+ sensitive photo-protein
T1 sequence (P35411 1-354): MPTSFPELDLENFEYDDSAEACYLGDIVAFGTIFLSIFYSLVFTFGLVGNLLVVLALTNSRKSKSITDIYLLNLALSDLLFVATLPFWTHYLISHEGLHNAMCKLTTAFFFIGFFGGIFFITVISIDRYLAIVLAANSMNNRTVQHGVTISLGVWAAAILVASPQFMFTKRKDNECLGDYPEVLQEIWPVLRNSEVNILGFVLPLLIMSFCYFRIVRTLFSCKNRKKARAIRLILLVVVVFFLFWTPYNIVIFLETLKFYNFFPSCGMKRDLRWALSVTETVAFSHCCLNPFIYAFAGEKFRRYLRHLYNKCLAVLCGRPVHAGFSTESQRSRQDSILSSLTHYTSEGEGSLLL
Nature of the test: Ga16 assay, CX3CR1 agonism, Ca2+ sensitive photo-protein readout (FLIPRTETRA). The conditions noted are these: rat CX3CR1 cell line. Here is the method:
(§1) Compounds (as well as stereoisomer(s) thereof and/or salt(s) thereof) were tested for CX3CR1 agonism in a cell based assay with fluorescent readout in Agonist Mode in dose response in quadruplicate with intra-plate modality).
(§2) Buffers and reagents. PBS (D-PBS without calcium and magnesium; EuroClone); Trypsin (Trypsin 0.05%, EDTA 0.02% in PBS; EuroClone); DMSO (Sigma); Standard tyrode buffer: in-house solution (130 mM NaCl, 5 mM KCl, 2 mM CaCl2), 1 mM MgCl2, 5 mM NaHCO3, 20 mM HEPES in water at pH 7.4; sterile filtered); Coelenterazine, native (Biosynth); stock 10 mM; Agonist: Recombinant Human Fractalkine (CX3CL1) (PeproTech); stock: 10 μM in standard tyrode buffer+BSA 0.1%; stored at −20° C.
(§3) Cell line. Human (hCX3CR1), mouse (mCX3CR1), and rat (rCX3CR1) were used for the assay.
(§4) Assay protocol. Experiments ere performed in 384 MTP format. Cells were seeded at 7,500 cells/well in 25 μl/well complete growth medium without selection antibiotics in 384-well plates. Twenty-four hours later, cells ere assayed for the response to various compounds using the Ca^2+ sensitive photo-protein stably expressed in the cells as readout.
(§5) The experiment was performed in a 384-well format according to the following procedure: • 24h after seeding, pre-incubate the cells at room temperature for 1 hour. • Then remove the culture medium. • Load cells with 20 μL/well of standard tyrode buffer+10 μM ceolenterazine. • Incubate cell plates for 3 hours at RT. • Inject 10 μL/w of 3× concentrated test compounds and controls in assay buffer at the FLIPRTETRA and monitor the kinetic response over a period of 90 seconds.
(§6) Data from FLIPRTETRA measurements were analyzed with the Genedata Screener© software. The following examples are meant to illustrate, but in no way to limit, the claimed invention.

Another test concerns the target T2, mCX3CR1 (Mus musculus, UniProt Q9Z0D9).
T2 construct: expressed in transfected cells; stably expresses a Ca2+ sensitive photo-protein
T2 sequence (Q9Z0D9 1-354): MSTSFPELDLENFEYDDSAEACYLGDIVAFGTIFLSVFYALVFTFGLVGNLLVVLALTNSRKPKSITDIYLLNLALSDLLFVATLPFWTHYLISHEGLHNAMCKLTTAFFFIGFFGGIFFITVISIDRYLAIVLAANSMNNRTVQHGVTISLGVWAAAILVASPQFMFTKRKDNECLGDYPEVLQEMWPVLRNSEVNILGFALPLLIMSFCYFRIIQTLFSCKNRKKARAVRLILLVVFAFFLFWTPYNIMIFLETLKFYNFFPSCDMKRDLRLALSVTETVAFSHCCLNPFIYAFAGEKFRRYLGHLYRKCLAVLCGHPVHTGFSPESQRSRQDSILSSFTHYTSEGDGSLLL
Described as above. Conditions: mouse CX3CR1 cell line. Here is the method:
as §1, §2, §3, §4, §5, §6

The target in test [1] is T3, hCX3CR1 (Homo sapiens, UniProt P49238).
T3 sequence (P49238 1-355): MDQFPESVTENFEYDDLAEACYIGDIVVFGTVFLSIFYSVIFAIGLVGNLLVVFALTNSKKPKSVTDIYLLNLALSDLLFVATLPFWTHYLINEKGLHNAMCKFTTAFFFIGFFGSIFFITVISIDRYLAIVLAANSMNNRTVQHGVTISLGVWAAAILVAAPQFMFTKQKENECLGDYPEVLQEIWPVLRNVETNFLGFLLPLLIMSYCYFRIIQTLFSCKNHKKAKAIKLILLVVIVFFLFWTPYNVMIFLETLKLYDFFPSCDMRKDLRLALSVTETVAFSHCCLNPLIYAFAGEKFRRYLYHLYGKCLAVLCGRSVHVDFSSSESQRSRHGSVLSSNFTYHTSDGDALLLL
Described as above. The arrangement: expressed in transfected cells; stably expresses a Ca2+ sensitive photo-protein. Conditions: human CX3CR1 cell line. The method, then: as §1, §2, §3, §4, §5, §6

Test [2] addresses T3, hCX3CR1. Nature of the test: Suchi5 assay (HEK/NatClytin/CNG/Suchi5 transiently transfected hCX3CR1, Fluo-8 Ca2+ readout). More on the design: expressed in transfected cells; stably expresses a Ca2+ sensitive photo-protein. The conditions noted are these: Suchi5 assay, HEK/NatClytin/CNG/Suchi5 transfected with hCX3CR1; read-out: hCX3CR1 agonism EC50. Here is the method:
Buffers and reagents. PBS (D-PBS without calcium and magnesium; EuroClone); Trypsin (Trypsin 0.05%, EDTA 0.02% in PBS; EuroClone); Opti-MEM medium (Thermo Fisher); DMSO (Sigma); Standard tyrode buffer: in-house solution (130 mM NaCl, 5 mM KCl, 2 mM CaCl2), 1 mM MgCl2, 5 mM NaHCO3, 20 mM HEPES in water at pH 7.4; sterile filtered); Screen Quest™ Fluo-8 No Wash Calcium Assay Kit (AAt Bioquest®); Lipofectamine® 2000 Reagent (Thermo Fisher); Agonist: Recombinant Human Fractalkine (CX3CL1) (PeproTech); stock: 10 μM in standard Tyrode buffer/BSA 01%; stored at −20° C.
Cell line. The final cell line for CX3CR1-Suchi5 assay is HEK/NatClytin/CNG/Suchi5 transiently transfected hCX3CR1 cDNA. In this cell line native Gαi signaling is switched to Gαq pathway thanks to the overexpression of a Gαiq chimeric G protein (called Suchi5) to direct Gαi activation towards Ca^2+ release for measurement.
Assay protocol. Experiments are performed in 384 MTP format. Transiently transfected cells are seeded at 20,000 cells/well in 25 μl/well Opti-MEM medium without selection antibiotics in 384-well plates. 4-5-hours later 25 μL/well of complete medium with 20% of FBS are added to the cells. Twenty-four hours later, cells are assayed for the response to various compounds using a fluorescent Ca^2+ sensitive dye (FLUO8-No Wash Dye) as readout.
The experiment is performed in a 384-well format according to the following procedure: • 24h after seeding, remove the culture medium. • Load cells with 20 μL/well of 0.5X FLUO-8 No Wash Dye diluted in assay buffer. • Incubate cell plates for 1 hour at RT. • Inject 10 μL/w of 3× concentrated test compounds and controls in assay buffer at the FLIPRTETRA and monitor the kinetic response over a period of 90 seconds.
Data from FLIPRTETRA measurements are analyzed with the Genedata Screener© software.

As to `O=C(NCC1(CN2CCCC2)CC(F)(F)C1)c1cc2c(s1)CCCCCC2` [Example 57, N-[[3,3-difluoro-1-(pyrrolidin-1-ylmethyl)cyclobutyl]methyl]-4,5,6,7,8,9-hexahydrocycloocta[b]thiophene-2-carboxamide], the EC50 on rCX3CR1 was 20.3 µM; on mCX3CR1, 30.1 µM; at hCX3CR1 [1] it was 15.3 µM; at hCX3CR1 [2] it was 15.6 µM.
Turning to `CC(C)(CNC(=O)c1cc2c(s1)CCCCCC2)CN1CCC(O)C(C)(C)C1` (stereo not shown) [Example 68, N-[3-(4-hydroxy-3,3-dimethylpiperidin-1-yl)-2,2-dimethylpropyl]-4,5,6,7,8,9-hexahydrocycloocta[b]thiophene-2-carboxamide], the EC50 on rCX3CR1 is 63 µM; on mCX3CR1, more than 100 µM; at hCX3CR1 [1] it was 19.7 µM; on hCX3CR1 [2], 19.5 µM.
Take `COC1(C)CCN(CC2(CNC(=O)c3cc4c(s3)CCCCCC4)CCCC2)CC1` [Example 53, N-[[1-[(4-methoxy-4-methylpiperidin-1-yl)methyl]cyclopentyl]methyl]-4,5,6,7,8,9-hexahydrocycloocta[b]thiophene-2-carboxamide]: the EC50 on rCX3CR1 came out at 33.7 µM; at mCX3CR1, 48.6 µM; at hCX3CR1 [1], 8.6 µM; at hCX3CR1 [2], 11.8 µM.
On the same counts, the results for `CC(C)(CNC(=O)c1cc2c(s1)CCCCCC2)CN1CCC(C)(O)CC1` [Example 67, N-[3-(4-hydroxy-4-methylpiperidin-1-yl)-2,2-dimethylpropyl]-4,5,6,7,8,9-hexahydrocycloocta[b]thiophene-2-carboxamide] are 78.9 µM, 87.1 µM, 18.3 µM and 14.4 µM.
For `CC(C)(CNC(=O)c1cc2c(s1)CCCCCC2)CN1CCCC(O)C1` (stereo not shown) [Example 46, N-[3-(3-hydroxypiperidin-1-yl)-2,2-dimethylpropyl]-4,5,6,7,8,9-hexahydrocycloocta[b]thiophene-2-carboxamide], the EC50 on rCX3CR1 came out at 19.8 µM; on mCX3CR1 it was 52.8 µM; at hCX3CR1 [1] it was 10.9 µM; at hCX3CR1 [2], 11.8 µM.
For `COC1CCN(CC2(CNC(=O)c3cc4c(s3)CCCCCC4)CCC2)CC1` [Example 49, N-[[1-[(4-methoxypiperidin-1-yl)methyl]cyclobutyl]methyl]-4,5,6,7,8,9-hexahydrocycloocta[b]thiophene-2-carboxamide], in that order: 6.6 µM, 8.7 µM, 10 µM and 8.9 µM.
With `O=C(NCC1(CN2CCC(O)CC2)CCC1)c1cc2c(s1)CCCCCC2` [Example 41, N-[[1-[(4-hydroxypiperidin-1-yl)methyl]cyclobutyl]methyl]-4,5,6,7,8,9-hexahydrocycloocta[b]thiophene-2-carboxamide], the EC50 at rCX3CR1 was 7.4 µM; on mCX3CR1 it was 9.4 µM; at hCX3CR1 [1] it was 8.6 µM; on hCX3CR1 [2] it was 2.5 µM.
On the same counts, the results for `CC1CCCC1(CNC(=O)c1cc2c(s1)CCCCCC2)CN1CCCC1` (stereo not shown) [Example 62, N-[[2-methyl-1-(pyrrolidin-1-ylmethyl)cyclopentyl]methyl]-4,5,6,7,8,9-hexahydrocycloocta[b]thiophene-2-carboxamide] are 40.9 µM, 99.4 µM, 20.8 µM and 12.9 µM.
For `O=C(NCC1(CN2CCC(O)C2)CCC1)c1cc2c(s1)CCCCCC2` (stereo not shown) [Example 66, N-[[1-[(3-hydroxypyrrolidin-1-yl)methyl]cyclobutyl]methyl]-4,5,6,7,8,9-hexahydrocycloocta[b]thiophene-2-carboxamide], in that order: 11.4 µM, 20.4 µM, 16 µM and 7.2 µM.
On the same counts, the results for `COC1CCCN(CC2(CNC(=O)c3cc4c(s3)CCCCCC4)CCC2)C1` (stereo not shown) [Example 55, N-({1-[(3-Methoxypiperidin-1-yl)methyl]cyclobutyl}methyl)-4H,5H,6H,7H,8H,9H-cycloocta[b]thiophene-2-carboxamide] are 12.1 µM, 8.1 µM, 13.7 µM and 7.1 µM.
With `O=C(NCC1(CN2CCCC(O)C2)CCC1)c1cc2c(s1)CCCCCC2` (stereo not shown) [Example 65, N-[[1-[(3-hydroxypiperidin-1-yl)methyl]cyclobutyl]methyl]-4,5,6,7,8,9-hexahydrocycloocta[b]thiophene-2-carboxamide], the EC50 on rCX3CR1 was found to be 7.4 µM; on mCX3CR1, 9.2 µM; at hCX3CR1 [1], 6 µM; on hCX3CR1 [2], 8.2 µM.
Consider `COC1CCCN(CC(C)(C)CNC(=O)c2cc3c(s2)CCCCCC3)C1` (stereo not shown) [Example 54, N-[3-(3-methoxypiperidin-1-yl)-2,2-dimethylpropyl]-4,5,6,7,8,9-hexahydrocycloocta[b]thiophene-2-carboxamide], for which the EC50 on rCX3CR1 is more than 100 µM; at mCX3CR1, more than 100 µM; on hCX3CR1 [1], 16.3 µM; on hCX3CR1 [2], 17.4 µM.
With `CC1CCCC1(CNC(=O)c1cc2c(s1)CCCCCC2)CN(C)C` (single isomer, unassigned) [Example 60, N-[[1-[(dimethylamino)methyl]-2-methylcyclopentyl]methyl]-4,5,6,7,8,9-hexahydrocycloocta[b]thiophene-2-carboxamide], the EC50 on rCX3CR1 stood at 18.9 µM; on mCX3CR1, 89.8 µM; at hCX3CR1 [1], 16.8 µM; at hCX3CR1 [2] it was 10.3 µM.

Source of the values: patent US12258337B2, “Bicyclic CX3CR1 receptor agonists” (Board of Regents, The University of Texas System, priority 2019, dated 2025).
